# What was measured:
# UCHL1 (Homo sapiens) = experiment: Deubiquitination assay, cleavage of GST-Ubiquitin-HA by UCHL1 (SDS-PAGE band intensity); format: biochemical
# Protocol: For in vitro ubiquitination assays, 500 µM of ubiquitin was used for each ubiquitination reaction as described previously, in the absence or presence of 50–500 µM of CR. […] The generation of GST-ubiquitin from GST-Ubiquitin-HA as the mobility shifts were analyzed on 12.5% SDS-PAGE visualized by Coomassie blue staining. Band intensities were quantified by ImageJ [55] and used to generate the IC50 curves (log inhibitor vs. normalized response with variable slope) by GraphPad Prism version 6.0 for Windows (GraphPad Software, San Diego, CA, USA, www.graphpad.com).
# H1299 cells [1] = experiment: Total ubiquitination state of non-Dox-treated cells (immunoblot, immunofluorescence); format: cell-based; conditions: H1299, 1.0 and 10 μM CR, 12 h
# Protocol: Cells were seeded in the SPL 4 wells cell culture chamber slide 24 h before experiment. Cells were treated with an indicated compound for an indicated time. The cells were fixed with 4% formaldehyde for 15 min followed by three times of PBS washing. Cells were permeabilized by incubation with PBS containing 0.5% Triton-X100 and 5% FBS for 30 min, and then blocked with blocking buffer (PBS, 5% FBS, 0.3% Triton X-100) for 1.5 h. Subsequently, cells were incubated with primary antibody at 1/200 dilution in blocking buffer overnight and then washed with blocking buffer five times (5 min each) before incubation with fluorescence-conjugated secondary antibody at 1/200 dilution in blocking buffer for 1 h. Cells were then washed with blocking buffer five times (5 min each) before incubation with DAPI for 10 min and three times washing with PBS. Slides were covered with the coverslip in the presence of mounting solution (cat # 475904, MOWIOL) and subjected to confocal imaging. Images acquired in confocal imaging were subjected to fluorescence intensity analysis using ImageJ [55]. Fluorescence signal representing a particular ubiquitin chain level was analyzed and normalized with the intensity of DAPI. Data were analyzed using GraphPad Prism version 6.0 for Windows with two tail t-test for statistical data analysis. page 6: Figure S6. Effect of CR on the ubiquitination state of none-treated cells. […]
# H1299 cells [2] = experiment: Cytotoxicity, cell viability assay; format: cell-based
# Protocol: Cell viability assays were performed as described previously. For the caspase assays, the media were removed, and cells were lysed in 200 µL lysis buffer containing 50 µL Caspase Glo 3/7 solution and incubated for 15 min. Results were observed by measuring the luminescence signal using KOMM-Nr (Berthold Technologies, Bad Wildbad, Germany) and normalized with the total protein concentration measured by the Bradford assay. Data were analyzed using GraphPad Prism version 6.0 for Windows with two tail t-test for statistical data analysis […]
# Figure S7. Cytotoxicity of CR to cancer cells. H1299 cells were cultured in 96 -well plates. CR was added to final concentrations of 0.0 – 50.0 µM, and the cells were incubated for 24 h followed by cell viability assay. All error bars represent the standard deviation from at least 4 independent experiments. Statistical comparisons between groups were determined by Student’s t -test. If p -values are less than 0.05, they are statistically significant . NS, not […]
# (1 picture or pasted object on this page, not shown here)
# H1299 cells [3] = experiment: Dox-induced K48- and K63-polyubiquitination in cells (immunofluorescence staining, Western blot); format: cell-based; conditions: H1299, 5 or 10 μM CR 12 h pretreatment, then 5 μM Dox 12 h
# Protocol: Figure 6 CR inhibits Dox-induced ubiquitination in the cells. (a) Immunofluorescence staining of H1299 cells treated with or without 5 (+) and 10 (++) μM CR for 12 h followed by addition of Dox to a final concentration of 5 μM, with incubation for 12 h. The cells were subjected to immunofluorescence staining using the antibodies against K48 (αK48) and K63 polyubiquitins (αK63). (b) K48 or K63 polyubiquitin level in Figure 6a was quantified by fluorescence signal. At least seven random regions acquired in confocal images were sampled and normalized against DAPI intensity for quantification. (c) Immunoblots of samples in Figure 6a using the indicated antibodies. […] Statistical significance was calculated by the Student’s t-test (* p < 0.05, ** p < 0.01, *** p < 0.001).
# Cells were seeded in the SPL 4 wells cell culture chamber slide 24 h before experiment. […] Subsequently, cells were incubated with primary antibody at 1/200 dilution in blocking buffer overnight and then washed with blocking buffer five times (5 min each) before incubation with fluorescence-conjugated secondary antibody at 1/200 dilution in blocking buffer for 1 h. […] Images acquired in confocal imaging were subjected to fluorescence intensity analysis using ImageJ [55]. Fluorescence signal representing a particular ubiquitin chain level was analyzed and normalized with the intensity of DAPI. […]
# [4] = Cell membrane permeability (inferred from intracellular action); conditions: in contrast to CSB6B; inferred from intracellular effect on ubiquitination
# UCHL1 (Homo sapiens), sequence (P09936 whole entry, other chains not shown): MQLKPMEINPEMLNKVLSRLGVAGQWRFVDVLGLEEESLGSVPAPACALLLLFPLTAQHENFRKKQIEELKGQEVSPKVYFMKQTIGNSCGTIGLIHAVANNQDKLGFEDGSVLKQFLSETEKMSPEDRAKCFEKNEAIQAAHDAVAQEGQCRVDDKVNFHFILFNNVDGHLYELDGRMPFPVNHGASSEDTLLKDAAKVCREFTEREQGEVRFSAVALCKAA
structure (smiles),measurement,setting,value
"Nc1c(/N=N/c2ccc(-c3ccc(/N=N/c4cc(S(=O)(=O)O)c5ccccc5c4N)cc3)cc2)cc(S(=O)(=O)O)c2ccccc12 [CR, Congo red]",IC50,UCHL1 (Homo sapiens),26.9 ± 2.99 µM
same,Effect on total ubiquitination of normal (non-Dox-treated) cells,H1299 cells [1],slight accumulation of the polyubiquitin chains
same,"Effect on cell viability, compound alone","H1299 cells [2]; H1299, CR 0.0–50.0 µM, 24 h",does not affect
same,None-toxicity concentration,H1299 cells [2]; determined by cytotoxicity assays,10 µM
same,Effect on Dox-triggered K48 and K63 ubiquitination,H1299 cells [3],suppressed Dox-triggered ubiquitination in both K48 and K63
same,Cell permeability,[4],better cell permeability
